In assay [1] the target is Human MER (residues 528-999) (Homo sapiens (Human), UniProt Q12866). The assay is described as follows: Human Mer kinase assay, HTRF KinEase (Example C-2). Type of assay: biochemical. In outline: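 IC50 values from 10 concentrations via 4-parameter logistic fit of […], with DMSO as 100% and 1 μM reference compound as 0% activity. Reaction: MER kinase domain 528-999, 1 ng/well, 40 μM ATP (Km), biotin peptide, 5 mM MgCl2, 1 mM DTT, 3% DMSO, room temperature 60 min; HTRF streptavidin-XL665/Eu-antibody detection.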
Chain of Human MER (residues 528-999) (Q12866 528-999): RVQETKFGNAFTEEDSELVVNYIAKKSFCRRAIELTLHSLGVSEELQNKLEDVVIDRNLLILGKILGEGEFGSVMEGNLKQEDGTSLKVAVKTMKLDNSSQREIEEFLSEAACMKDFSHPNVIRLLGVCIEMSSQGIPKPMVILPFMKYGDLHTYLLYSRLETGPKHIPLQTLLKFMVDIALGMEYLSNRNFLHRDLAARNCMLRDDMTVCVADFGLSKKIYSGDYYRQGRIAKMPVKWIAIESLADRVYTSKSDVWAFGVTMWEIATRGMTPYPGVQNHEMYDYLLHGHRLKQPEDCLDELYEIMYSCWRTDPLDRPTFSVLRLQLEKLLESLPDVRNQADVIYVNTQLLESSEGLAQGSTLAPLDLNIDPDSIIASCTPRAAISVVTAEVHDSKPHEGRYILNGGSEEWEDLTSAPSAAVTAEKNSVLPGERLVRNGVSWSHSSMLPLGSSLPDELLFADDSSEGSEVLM

Assay [2] addresses Human KDR (residues 790-1356) (Homo sapiens (Human), UniProt P35968). The assay is described as follows: Human KDR kinase assay, HTRF KinEase (Example B-2). Format: biochemical. In outline: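 Ten compound concentrations (3% DMSO final) were pre-plated, then KDR (790-1356) with biotinylated peptide in Mg/Mn/DTT buffer was added; ATP at Km (4.0 μM) started a 40 min room-temperature reaction. Detection used Eu-TK antibody and SA-XL665 in EDTA buffer; activity normalized to DMSO and reference inhibitor, IC50 by logistic fit.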

The target of assay [3] is Mer (phospho-Mer, MERTK-transfected 293A cells) (Homo sapiens (Human), UniProt Q12866). The assay can be described thus: Mer autophosphorylation ELISA in transient transfected 293A cells (Example H). Format: cell-based. As to conditions: cellular activity; Mer autophosphorylation ELISA in transient transfected 293A cells. In outline:
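IC50 from 4-parameter logistic fit of phospho-Mer levels, quantified by ELISA against a phospho-Mer standard in lysates of MERTK-transfected 293A cells. Cells exposed 1 h to 8-point serial dilutions, serum-free, 0.3% DMSO; controls: DMSO (100%) and reference inhibitor (0%).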
(In an ELISA, binding on a coated surface is turned into a signal by an enzyme label.)

The target of assay [4] is KDR (phospho-KDR, VEGF165-stimulated HUVEC cells) (Homo sapiens (Human), UniProt P35968). The assay is described as follows: KDR autophosphorylation ELISA in HUVEC cells (Example G). Type of assay: cell-based. As to conditions: cellular activity; KDR autophosphorylation ELISA in HUVEC cells. In outline: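 Read-out is phospho-KDR measured by ELISA in lysates of VEGF165-stimulated (100 ng/mL, 5 min) HUVEC that were serum-starved 24 h and then pre-exposed 1 h to compound across 8 doses in 0.3% DMSO. Unstimulated lysates defined 0% and stimulated vehicle lysates 100% activity; IC50 values come from 4-parameter logistic regression.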
Chain of KDR (phospho-KDR, VEGF165-stimulated HUVEC cells) (P35968 20-1356): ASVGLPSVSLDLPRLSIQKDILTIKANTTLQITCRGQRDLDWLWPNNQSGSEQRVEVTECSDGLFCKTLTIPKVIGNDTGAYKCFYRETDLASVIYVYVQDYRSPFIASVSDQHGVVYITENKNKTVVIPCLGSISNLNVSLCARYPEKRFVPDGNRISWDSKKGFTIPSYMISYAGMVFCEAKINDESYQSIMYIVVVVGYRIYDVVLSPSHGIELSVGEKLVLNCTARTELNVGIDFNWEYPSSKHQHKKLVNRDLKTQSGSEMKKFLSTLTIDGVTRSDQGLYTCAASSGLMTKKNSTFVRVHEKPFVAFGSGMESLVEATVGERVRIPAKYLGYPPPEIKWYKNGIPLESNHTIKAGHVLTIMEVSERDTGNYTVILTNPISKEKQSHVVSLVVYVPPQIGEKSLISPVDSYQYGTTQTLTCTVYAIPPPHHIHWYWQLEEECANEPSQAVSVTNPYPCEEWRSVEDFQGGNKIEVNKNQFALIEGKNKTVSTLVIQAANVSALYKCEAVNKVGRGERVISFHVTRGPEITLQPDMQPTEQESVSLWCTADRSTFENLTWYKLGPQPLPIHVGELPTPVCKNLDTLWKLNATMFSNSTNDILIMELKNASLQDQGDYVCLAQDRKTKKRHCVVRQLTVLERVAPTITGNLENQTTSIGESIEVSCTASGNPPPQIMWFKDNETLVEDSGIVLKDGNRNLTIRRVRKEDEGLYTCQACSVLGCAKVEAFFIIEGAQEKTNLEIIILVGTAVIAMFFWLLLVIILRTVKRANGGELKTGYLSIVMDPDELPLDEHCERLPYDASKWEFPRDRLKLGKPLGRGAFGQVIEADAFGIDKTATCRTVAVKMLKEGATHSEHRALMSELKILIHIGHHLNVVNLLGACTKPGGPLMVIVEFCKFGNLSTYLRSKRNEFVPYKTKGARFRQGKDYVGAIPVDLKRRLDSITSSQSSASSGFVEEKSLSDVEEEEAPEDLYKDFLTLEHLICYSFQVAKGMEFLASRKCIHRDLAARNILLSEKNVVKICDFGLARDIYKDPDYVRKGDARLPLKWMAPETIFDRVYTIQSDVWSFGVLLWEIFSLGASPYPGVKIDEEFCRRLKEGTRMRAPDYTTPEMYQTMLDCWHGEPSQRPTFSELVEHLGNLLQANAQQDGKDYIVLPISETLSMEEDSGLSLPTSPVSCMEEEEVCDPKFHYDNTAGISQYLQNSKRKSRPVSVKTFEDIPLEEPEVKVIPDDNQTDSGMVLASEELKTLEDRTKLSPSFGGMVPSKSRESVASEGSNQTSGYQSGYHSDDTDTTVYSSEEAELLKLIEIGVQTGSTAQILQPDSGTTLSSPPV

Setting [5] is: protocol of Example C-2 (other compounds).
Where [6] appears, read: protocol of Example B-2 (other compounds).

Chain of Human KDR (residues 790-1356) (P35968 790-1356): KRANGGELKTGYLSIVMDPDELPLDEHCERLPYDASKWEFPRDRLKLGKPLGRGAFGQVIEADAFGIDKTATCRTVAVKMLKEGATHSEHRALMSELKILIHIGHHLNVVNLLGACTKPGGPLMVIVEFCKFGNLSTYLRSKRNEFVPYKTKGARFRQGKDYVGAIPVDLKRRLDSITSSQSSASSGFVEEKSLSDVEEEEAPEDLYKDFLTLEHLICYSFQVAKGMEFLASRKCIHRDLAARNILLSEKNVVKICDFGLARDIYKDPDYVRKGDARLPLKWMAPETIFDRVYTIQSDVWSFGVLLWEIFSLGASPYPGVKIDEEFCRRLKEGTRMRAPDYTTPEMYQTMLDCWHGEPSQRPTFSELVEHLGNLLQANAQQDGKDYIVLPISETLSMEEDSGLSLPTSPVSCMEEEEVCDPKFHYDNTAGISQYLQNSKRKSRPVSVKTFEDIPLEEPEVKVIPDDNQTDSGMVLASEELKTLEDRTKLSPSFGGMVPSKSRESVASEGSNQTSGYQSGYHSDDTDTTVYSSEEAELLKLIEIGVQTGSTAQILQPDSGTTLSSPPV
Chain of Mer (phospho-Mer, MERTK-transfected 293A cells) (Q12866 21-999): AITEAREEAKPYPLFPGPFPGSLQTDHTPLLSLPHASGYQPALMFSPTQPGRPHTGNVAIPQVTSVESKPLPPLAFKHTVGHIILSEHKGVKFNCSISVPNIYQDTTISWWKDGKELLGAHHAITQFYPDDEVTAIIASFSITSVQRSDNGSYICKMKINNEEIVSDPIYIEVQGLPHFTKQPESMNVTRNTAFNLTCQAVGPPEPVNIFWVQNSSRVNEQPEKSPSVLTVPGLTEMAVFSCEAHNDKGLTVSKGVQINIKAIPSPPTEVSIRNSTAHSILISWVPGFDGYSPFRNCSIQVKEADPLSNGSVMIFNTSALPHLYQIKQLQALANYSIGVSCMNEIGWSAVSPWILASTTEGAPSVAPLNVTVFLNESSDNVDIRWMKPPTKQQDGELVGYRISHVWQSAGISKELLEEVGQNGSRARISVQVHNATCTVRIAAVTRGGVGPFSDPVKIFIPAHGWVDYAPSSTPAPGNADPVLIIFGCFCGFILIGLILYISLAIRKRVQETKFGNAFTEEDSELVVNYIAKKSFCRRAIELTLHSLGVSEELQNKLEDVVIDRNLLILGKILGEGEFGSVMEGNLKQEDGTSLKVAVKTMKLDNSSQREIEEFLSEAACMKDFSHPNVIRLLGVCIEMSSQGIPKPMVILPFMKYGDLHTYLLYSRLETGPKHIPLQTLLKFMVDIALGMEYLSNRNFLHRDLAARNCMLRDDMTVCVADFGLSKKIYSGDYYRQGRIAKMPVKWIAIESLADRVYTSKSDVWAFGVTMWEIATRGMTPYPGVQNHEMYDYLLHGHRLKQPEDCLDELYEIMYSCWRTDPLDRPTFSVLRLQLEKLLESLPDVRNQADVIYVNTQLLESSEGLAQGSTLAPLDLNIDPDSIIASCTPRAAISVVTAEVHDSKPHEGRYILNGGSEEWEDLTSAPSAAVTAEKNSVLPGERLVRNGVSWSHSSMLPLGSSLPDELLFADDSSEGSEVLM

Usually IC50 stands for the concentration that gives 50% inhibition. A lower IC50 goes with inhibition by little substance. As to `COCCOc1ccc2nccc(Oc3ccc(NC(=O)c4cnc(C)c(-c5ccc(F)cc5)c4O)cc3F)c2n1` [Compound 348, N-[3-fluoro-4-[[6-(2-methoxyethoxy)-1,5-naphthyridin-4-yl]oxy]phenyl]-5-(4-fluorophenyl)-4-hydroxy-6-methylpyridine-3-carboxamide], the IC50 in assay [1] (setting [5]) is under 100 nM; in assay [2] (setting [6]) it was 100 to 300 nM; in assay [3], under 100 nM; in assay [4] it was under 100 nM.

With `COc1cnc2c(Oc3ccc(NC(=O)c4ccnn(-c5ccc(F)cc5C)c4=O)cc3)ccnc2c1` [Compound 530, 2-(4-fluoro-2-methylphenyl)-N-[4-[(7-methoxy-1,5-naphthyridin-4-yl)oxy]phenyl]-3-oxopyridazine-4-carboxamide], the IC50 is 100 to 300 nM in assay [1] (protocol of Example C-2), over 300 nM in assay [2] (protocol of Example B-2), under 100 nM in assay [3] and under 100 nM in assay [4].

Turning to `COc1cnc2c(Oc3ccc(NC(=O)c4nn(C)c(C)c(-c5ccc(F)cc5C)c4=O)cc3)ccnc2c1` [Compound 514, 5-(4-fluoro-2-methylphenyl)-N-[4-[(7-methoxy-1,5-naphthyridin-4-yl)oxy]phenyl]-1,6-dimethyl-4-oxopyridazine-3-carboxamide], the IC50 in assay [1] (protocol of Example C-2), in assay [2] (protocol of Example B-2), in assay [3] and in assay [4] was under 100 nM each time.

Consider `COc1cc2nccc(Oc3ccc(NC(=O)c4cnc(COC(C)=O)c(-c5ccc(F)cc5)c4O)cc3F)c2nc1OC` [Compound 544, [5-[[4-[(6,7-dimethoxy-1,5-naphthyridin-4-yl)oxy]-3-fluorophenyl]carbamoyl]-3-(4-fluorophenyl)-4-hydroxypyridin-2-yl]methyl acetate], for which the 50% inhibitory concentration (IC50) in assay [1] (protocol of Example C-2), in assay [2] (protocol of Example B-2), in assay [3] and in assay [4] was under 100 nM each time.

`COc1cnc2c(Oc3ccc(NC(=O)c4c(C)n(C)c(C)c(-c5ccc(F)cc5)c4=O)cc3F)ccnc2c1` [Compound 508, N-[3-fluoro-4-[(7-methoxy-1,5-naphthyridin-4-yl)oxy]phenyl]-5-(4-fluorophenyl)-1,2,6-trimethyl-4-oxopyridine-3-carboxamide]: the IC50 was under 100 nM in assay [1] (protocol of Example C-2), over 300 nM in assay [2] (protocol of Example B-2), under 100 nM in assay [3] and over 300 nM in assay [4].

Regarding `COc1cc2nccc(Oc3cc(F)c(NC(=O)c4cnc(C)c(-c5ccc(F)cc5)c4O)cc3F)c2nc1C` [Compound 542, N-[2,5-difluoro-4-[(7-methoxy-6-methyl-1,5-naphthyridin-4-yl)oxy]phenyl]-5-(4-fluorophenyl)-4-hydroxy-6-methylpyridine-3-carboxamide], the IC50 in assay [1] (protocol of Example C-2) was under 100 nM; in assay [2] (protocol of Example B-2), 100 to 300 nM; in assay [3], under 100 nM; in assay [4], under 100 nM.

With `COc1cc2nccc(Oc3ccc(NC(=O)c4cn(C)cc(-c5ccc(F)cc5C)c4=O)cc3F)c2nc1OC` [Compound 503, N-[4-[(6,7-dimethoxy-1,5-naphthyridin-4-yl)oxy]-3-fluorophenyl]-5-(4-fluoro-2-methylphenyl)-1-methyl-4-oxopyridine-3-carboxamide], the IC50 in assay [1] (protocol of Example C-2), in assay [2] (protocol of Example B-2), in assay [3] and in assay [4] was under 100 nM each time.

For `COc1cc2nccc(Oc3ccc(NC(=O)c4cc(C)nn(-c5ccc(F)cc5)c4=O)cc3F)c2nc1OC` [Compound 519, N-[4-[(6,7-dimethoxy-1,5-naphthyridin-4-yl)oxy]-3-fluorophenyl]-2-(4-fluorophenyl)-6-methyl-3-oxopyridazine-4-carboxamide], the IC50 in assay [1] (protocol of Example C-2) is under 100 nM; in assay [2] (protocol of Example B-2), over 300 nM; in assay [3], under 100 nM; in assay [4] it was under 100 nM.

In the case of `COc1cnc2c(Oc3ccc(NC(=O)c4nn(C)c(C)c(-c5ccc(F)cc5C)c4=O)cc3F)ccnc2c1` [Compound 513, N-[3-fluoro-4-[(7-methoxy-1,5-naphthyridin-4-yl)oxy]phenyl]-5-(4-fluoro-2-methylphenyl)-1,6-dimethyl-4-oxopyridazine-3-carboxamide], the half-inhibitory concentration (IC50) in assay [1] (protocol of Example C-2), in assay [2] (protocol of Example B-2), in assay [3] and in assay [4] was under 100 nM in each case.

For `COc1cc2nccc(Oc3ccc(NC(=O)c4c(C)n(C)c(C)c(-c5ccc(F)cc5)c4=O)cc3F)c2nc1OC` [Compound 511, N-[4-[(6,7-dimethoxy-1,5-naphthyridin-4-yl)oxy]-3-fluorophenyl]-5-(4-fluorophenyl)-1,2,6-trimethyl-4-oxopyridine-3-carboxamide], the half-inhibitory concentration (IC50) was under 100 nM in assay [1] (protocol of Example C-2), 100 to 300 nM in assay [2] (protocol of Example B-2), under 100 nM in assay [3] and 100 to 300 nM in assay [4].

In the case of `COc1cc2nccc(Oc3ccc(NC(=O)c4c(C)c(C)nn(-c5ccc(F)cc5)c4=O)cc3F)c2nc1OC` [Compound 524, N-[4-[(6,7-dimethoxy-1,5-naphthyridin-4-yl)oxy]-3-fluorophenyl]-2-(4-fluorophenyl)-5,6-dimethyl-3-oxopyridazine-4-carboxamide], the IC50 in assay [1] (protocol of Example C-2) was under 100 nM; in assay [2] (protocol of Example B-2), 100 to 300 nM; in assay [3], under 100 nM; in assay [4], 100 to 300 nM.

Regarding `CCn1cc(C(=O)Nc2ccc(Oc3ccnc4cc(OC)cnc34)c(F)c2)c(=O)c(-c2ccc(F)cc2)c1CF` [Compound 559, 1-Ethyl-N-[3-fluoro-4-[(7-methoxy-1,5-naphthyridin-4-yl)oxy]phenyl]-6-(fluoromethyl)-5-(4-fluorophenyl)-4-oxopyridine-3-carboxamide], the IC50 in assay [1] (protocol of Example C-2) is under 100 nM; in assay [2] (protocol of Example B-2) it was over 300 nM; in assay [3], under 100 nM; in assay [4], over 300 nM.

Turning to `COc1cc2nccc(Oc3ccc(NC(=O)c4nn(C)c(C)c(-c5ccc(F)cc5C)c4=O)cc3)c2nc1OC` [Compound 517, N-[4-[(6,7-dimethoxy-1,5-naphthyridin-4-yl)oxy]phenyl]-5-(4-fluoro-2-methylphenyl)-1,6-dimethyl-4-oxopyridazine-3-carboxamide], the IC50 in assay [1] (protocol of Example C-2), in assay [2] (protocol of Example B-2), in assay [3] and in assay [4] was under 100 nM each time.

Turning to `C=C(C)c1cnc2c(Oc3ccc(NC(=O)c4c(C)nc(C)c(-c5ccc(F)cc5)c4O)cc3)ccnc2c1` [Compound 455, 5-(4-fluorophenyl)-4-hydroxy-2,6-dimethyl-N-[4-[(7-prop-1-en-2-yl-1,5-naphthyridin-4-yl)oxy]phenyl]pyridine-3-carboxamide], the IC50 in assay [1] (protocol of Example C-2), in assay [2] (protocol of Example B-2), in assay [3] and in assay [4] was under 100 nM throughout.

Take `COc1cnc2c(Oc3ccc(NC(=O)c4cn(C)c(C)c(-c5ccc(F)cc5C)c4=O)cc3)ccnc2c1` [Compound 187, 5-(4-Fluoro-2-methylphenyl)-N-[4-[(7-methoxy-1,5-naphthyridin-4-yl)oxy]phenyl]-1,6-dimethyl-4-oxopyridine-3-carboxamide]: the IC50 in assay [1] (setting [5]) is under 100 nM; in assay [2] (setting [6]), over 300 nM; in assay [3] it was under 100 nM; in assay [4], over 300 nM.

For the compound `COc1cc2nccc(Oc3ccc(NC(=O)c4cn(C)c(CF)c(-c5ccc(F)cc5)c4=O)cc3)c2nc1OC` [Compound 560, N-[4-[(6,7-Dimethoxy-1,5-naphthyridin-4-yl)oxy]phenyl]-6-(fluoromethyl)-5-(4-fluorophenyl)-1-methyl-4-oxopyridine-3-carboxamide], the IC50 in assay [1] (protocol of Example C-2) is under 100 nM; in assay [2] (protocol of Example B-2), over 300 nM; in assay [3], under 100 nM; in assay [4], 100 to 300 nM.

With `COCCOc1nc2c(Oc3ccc(NC(=O)c4cn(C)c(CF)c(-c5ccc(F)cc5)c4=O)cc3F)ccnc2cc1OC` [Compound 557, N-[3-Fluoro-4-[[7-methoxy-6-(2-methoxyethoxy)-1,5-naphthyridin-4-yl]oxy]phenyl]-6-(fluoromethyl)-5-(4-fluorophenyl)-1-methyl-4-oxopyridine-3-carboxamide], the IC50 is under 100 nM in assay [1] (protocol of Example C-2), 100 to 300 nM in assay [2] (protocol of Example B-2), under 100 nM in assay [3] and 100 to 300 nM in assay [4].

For the compound `CCn1cc(C(=O)Nc2ccc(Oc3ccnc4cc(OC)c(OC)nc34)c(F)c2)c(=O)c(-c2ccc(F)cc2)c1CF` [Compound 562, N-[4-[(6,7-Dimethoxy-1,5-naphthyridin-4-yl)oxy]-3-fluorophenyl]-1-ethyl-6-(fluoromethyl)-5-(4-fluorophenyl)-4-oxopyridine-3-carboxamide], the IC50 in assay [1] (protocol of Example C-2) is under 100 nM; in assay [2] (protocol of Example B-2), over 300 nM; in assay [3], under 100 nM; in assay [4] it was 100 to 300 nM.
